Source: ChEMBL document CHEMBL1201862, “PubChem BioAssay data set” (2004)
The source made the active and inactive calls.

Experiments:
[1] = inhibitors of SNCA 5'UTR-driven reporter translation, confirmation, H4 neuroglioma cells, luminescence (AID 1988); assay type: functional, cell-based
[2] = Luminescence Cell-Based Dose Response HTS to Identify Inhibitors of 5'UTR Stem-Loop Driven Prion Protein mRNA Translation in H4 Neuroglioblastoma Cells. [Related pubchem assays: 1827 (Project Summary), 1813 (Primary HTS)]; assay type: functional
[3] = inhibitors of firefly luciferase expression or activity, dose response, H4 neuroglioma cells, luminescence (AID 1990); assay type: functional, cell-based
[4] = molecular target: Cytochrome P450 2C19 (Homo sapiens, UniProt P33261); assay: Cytochrome panel assay with activity outcomes. Panel member name: p450-cyp2c19 Compounds with AC50 equal or less than 10 uM are considered active; assay type: functional
Chain of Cytochrome P450 2C19 (P33261 whole entry): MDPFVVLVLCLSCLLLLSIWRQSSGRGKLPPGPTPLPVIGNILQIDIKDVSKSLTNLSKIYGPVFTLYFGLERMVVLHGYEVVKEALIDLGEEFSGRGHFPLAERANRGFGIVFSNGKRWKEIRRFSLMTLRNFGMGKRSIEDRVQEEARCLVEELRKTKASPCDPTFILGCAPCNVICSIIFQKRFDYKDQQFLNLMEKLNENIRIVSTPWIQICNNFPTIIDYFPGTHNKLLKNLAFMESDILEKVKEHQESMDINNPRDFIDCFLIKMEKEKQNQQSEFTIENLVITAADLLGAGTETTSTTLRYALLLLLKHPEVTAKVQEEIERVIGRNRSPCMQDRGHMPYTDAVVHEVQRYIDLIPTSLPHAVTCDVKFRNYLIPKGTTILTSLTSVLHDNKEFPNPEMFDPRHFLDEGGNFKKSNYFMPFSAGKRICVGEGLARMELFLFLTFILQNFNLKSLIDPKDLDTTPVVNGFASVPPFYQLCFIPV

[5] = molecular target: Cytochrome P450 2C9 (Homo sapiens, UniProt P11712)
Chain of Cytochrome P450 2C9 (P11712 whole entry): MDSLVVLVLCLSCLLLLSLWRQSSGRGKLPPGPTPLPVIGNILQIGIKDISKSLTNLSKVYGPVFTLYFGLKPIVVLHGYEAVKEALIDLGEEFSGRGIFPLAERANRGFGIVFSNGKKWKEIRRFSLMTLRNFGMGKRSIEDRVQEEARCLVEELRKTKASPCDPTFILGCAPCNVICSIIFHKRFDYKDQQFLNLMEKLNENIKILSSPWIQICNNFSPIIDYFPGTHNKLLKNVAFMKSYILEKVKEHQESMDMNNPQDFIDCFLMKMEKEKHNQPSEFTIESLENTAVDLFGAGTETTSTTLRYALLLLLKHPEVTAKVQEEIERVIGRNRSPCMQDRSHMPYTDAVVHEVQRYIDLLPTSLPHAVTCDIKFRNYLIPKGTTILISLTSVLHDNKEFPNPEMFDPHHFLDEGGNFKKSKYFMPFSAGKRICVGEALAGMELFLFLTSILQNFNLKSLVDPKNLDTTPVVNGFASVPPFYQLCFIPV

[6] = molecular target: Cytochrome P450 3A4 (Homo sapiens, UniProt P08684);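 further: CYP3A4 tested as one member of a cytochrome P450 panel screen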
Chain of Cytochrome P450 3A4 (P08684 whole entry): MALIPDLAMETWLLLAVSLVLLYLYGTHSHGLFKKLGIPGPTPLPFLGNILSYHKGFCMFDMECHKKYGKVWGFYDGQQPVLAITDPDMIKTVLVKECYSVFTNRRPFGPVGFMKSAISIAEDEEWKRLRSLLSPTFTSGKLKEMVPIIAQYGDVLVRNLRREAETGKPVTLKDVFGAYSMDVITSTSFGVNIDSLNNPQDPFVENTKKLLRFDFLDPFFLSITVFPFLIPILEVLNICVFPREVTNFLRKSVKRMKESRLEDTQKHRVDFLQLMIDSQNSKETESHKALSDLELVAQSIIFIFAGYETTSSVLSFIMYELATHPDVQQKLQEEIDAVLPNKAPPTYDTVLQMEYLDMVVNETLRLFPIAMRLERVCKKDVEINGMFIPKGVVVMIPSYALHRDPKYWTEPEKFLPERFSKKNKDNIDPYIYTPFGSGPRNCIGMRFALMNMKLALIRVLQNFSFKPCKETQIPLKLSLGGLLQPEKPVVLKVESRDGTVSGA

[7] = molecular target: T1, Corticotropin-releasing factor receptor 2/Corticotropin-releasing factor-binding protein (Homo sapiens, UniProt P24387+Q13324); assay: activators of CRF receptor 2 with binding protein – uHTS hits, confirmation (AID 602473); assay type: functional; details: read-out: EC50_Mean
T1 sequence (Q13324 whole entry): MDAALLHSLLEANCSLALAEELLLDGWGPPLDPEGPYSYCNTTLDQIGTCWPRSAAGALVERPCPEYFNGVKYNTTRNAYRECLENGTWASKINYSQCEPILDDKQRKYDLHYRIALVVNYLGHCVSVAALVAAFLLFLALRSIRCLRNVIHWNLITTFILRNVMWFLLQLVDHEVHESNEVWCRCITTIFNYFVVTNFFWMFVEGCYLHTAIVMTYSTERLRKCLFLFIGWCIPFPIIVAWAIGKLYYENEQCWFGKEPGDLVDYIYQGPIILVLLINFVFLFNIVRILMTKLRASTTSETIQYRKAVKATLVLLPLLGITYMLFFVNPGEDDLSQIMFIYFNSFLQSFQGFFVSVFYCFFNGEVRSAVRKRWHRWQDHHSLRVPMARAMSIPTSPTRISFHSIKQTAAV
T1 sequence (P24387 whole entry): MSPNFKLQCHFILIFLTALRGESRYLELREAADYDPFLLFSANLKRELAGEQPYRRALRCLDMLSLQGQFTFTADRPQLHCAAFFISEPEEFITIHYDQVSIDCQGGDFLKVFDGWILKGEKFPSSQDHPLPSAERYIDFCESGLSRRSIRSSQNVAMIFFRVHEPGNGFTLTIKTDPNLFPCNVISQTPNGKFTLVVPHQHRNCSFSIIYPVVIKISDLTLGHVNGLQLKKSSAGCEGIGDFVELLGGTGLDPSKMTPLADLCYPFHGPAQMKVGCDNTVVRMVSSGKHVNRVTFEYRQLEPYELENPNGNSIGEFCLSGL

CN(C)CCNC(=O)c1csc(Nc2cccc3ccccc23)n1
EC50 [1]: 17.1 µM (active)
EC50 [2]: 23.6 µM (active)
EC50 [3]: > 120 µM (not active)

COc1ccc(NC(=O)c2cc(-c3cccnc3)nc3ccc(C)cc23)cc1OC
AC50 ([4]; read-out: AC50): 10 µM (inconclusive)
AC50 [5]: 7.08 µM (inconclusive)

O=c1c(-c2ccc(Cl)cc2)nc2cncnc2n1Cc1ccc(F)cc1
AC50 [6]: 15.8 µM (inconclusive)

COc1ccc(NC(=O)N2CCCC3(CCN(C(=O)c4c(C)noc4C)CC3)C2)cc1
AC50 [6]: 25.1 µM (inconclusive)

C[C@@H](C(=O)Nc1ccc2ccccc2c1)[C@H]1C[C@]1(C)[C@H](NC(=O)Oc1ccc(F)cc1)c1ccccc1
AC50 [5]: 31.6 µM (inconclusive)

Cc1cc(C)c2cc(C#N)c(NCCOC(=O)c3ccccc3C)nc2c1
AC50 ([4]; read-out: AC50): 1.78 µM (inconclusive)

COC(=O)[C@@]1(Cc2ccc(OC)cc2)[C@@H]2C(=CC(=O)[C@H]2CC(=O)C(=O)N2CCCC2)CN1C(=O)c1ccccc1
AC50 [6]: 2 µM (inconclusive)
AC50 ([4]; read-out: AC50): 39.8 µM (inconclusive)

O=C(OCc1ccccc1Cl)c1cc([N+](=O)[O-])ccc1N1CCOCC1
EC50 [1]: 36.1 µM (active)
EC50 [2]: > 120 µM (not active)
EC50 [3]: 23.3 µM (active)

O=c1c(-c2cccs2)nc2cncnc2n1C1CC1
AC50 [6]: 5.01 µM (inconclusive)
AC50 [5]: 15.8 µM (inconclusive)

CCOC(=O)CC(=O)CSc1nc(-c2cccnc2)cc(C)c1C#N
AC50 [6]: 11.2 µM (inconclusive)
AC50 ([4]; read-out: AC50): 8.91 µM (inconclusive)

Cc1ccc2cc(C(c3nnnn3C3CCCC3)N3CCN(c4ccc(F)cc4)CC3)c(O)nc2c1 (stereo not drawn)
EC50 [1]: 106 µM (active)
EC50 [2]: 113 µM (active)
EC50 [3]: 20.6 µM (active)

COc1ccc(NC(=O)/C(=C\c2cc(OC)c(OC)cc2[N+](=O)[O-])NC(=O)c2ccccc2)cc1
AC50 [6]: 0.891 µM (inconclusive)
AC50 ([4]; read-out: AC50): 20 µM (inconclusive)

CCCOc1ccccc1N=C(Nc1nc(C)cc(C)n1)NS(=O)(=O)c1ccc(C)cc1
EC50 [1]: > 120 µM (not active)
EC50 [2]: > 120 µM (not active)
EC50 [3]: 14.6 µM (active)

CCC/C=C(\CCC)C(NC(=O)OCC(C)C)c1ccc(C(=O)OC)cc1 (stereo not drawn)
AC50 ([4]; read-out: AC50): 25.1 µM (inconclusive)

Cc1cc(S(=O)(=O)NCCN(C)C)c(C)s1
AC50 ([4]; read-out: AC50): 31.6 µM (inconclusive)
AC50 [5]: 0.0447 µM (inconclusive)

Cc1nc2cnc(Oc3cccc(Cl)c3)nc2n(C[C@H]2CCCO2)c1=O
AC50 [6]: 15.8 µM (inconclusive)

Cc1cc(Oc2ccccc2)nc(-c2ccccc2)n1
AC50 [5]: 12.6 µM (inconclusive)

COc1ccc(Oc2ncc3ncc(=O)n(C[C@H]4CCCO4)c3n2)cc1
AC50 [5]: 20 µM (inconclusive)

Cc1cc(C(=O)OC2CCOC2=O)c2ccccc2n1 (stereo not drawn)
AC50 ([4]; read-out: AC50): 28.2 µM (inconclusive)

COc1ncc2nc(CCc3ccccc3)c(=O)n(CCc3ccccc3)c2n1
AC50 [5]: 2 µM (inconclusive)

OCCCCNCc1ccc(OCc2ccccc2Cl)cc1
AC50 [6]: 25.1 µM (inconclusive)
AC50 ([4]; read-out: AC50): 25.1 µM (inconclusive)

O=C(Nc1ccc(Br)cc1Cl)c1ccc2c(=O)n3c(nc2c1)CCC3
EC50 [7]: 4.04 µM (active)

Cc1ccccc1C(=O)Nc1cccc(NC(=O)Cn2cnc3c(=O)n(C)c(=O)n(C)c32)c1
EC50 [1]: > 120 µM (not active)
EC50 [2]: 12.9 µM (active)
EC50 [3]: 26.9 µM (active)

Cc1cc(C)cc(N2C(=O)/C(=C/NC3CCS(=O)(=O)C3)c3ccccc3C2=O)c1 (stereo not drawn)
AC50 ([4]; read-out: AC50): 39.8 µM (inconclusive)

N#C/C(=C(/O)c1cccc(F)c1)c1nc2ccccc2s1
EC50 [7]: > 53 µM (inactive)

CCOC(=O)c1sc(NC(=O)c2cccc(S(=O)(=O)N3c4ccccc4CC3C)c2)cc1C (stereo not drawn)
EC50 [1]: 6.96 µM (active)
EC50 [2]: 13.6 µM (active)
EC50 [3]: 10.1 µM (active)

COc1ccccc1-c1ccc2ncnc(Nc3ccccc3)c2c1
AC50 [5]: 1.26 µM (inconclusive)

CCCCc1nc(NCC2CCCO2)c(C#N)c2c1COC(C)(C)C2 (stereo not drawn)
EC50 [1]: > 120 µM (not active)
EC50 [2]: > 120 µM (not active)
EC50 [3]: 28 µM (active)

COc1ccc(Cc2nn3c(-c4ccccc4Br)nnc3s2)cc1
EC50 [1]: > 120 µM (not active)
EC50 [3]: > 120 µM (not active)

c1ccc(Oc2cccc(OCCCCSc3ncccn3)c2)cc1
EC50 [7]: > 53 µM (inactive)

COCCn1c(=O)c(-c2cccs2)nc2cnc(N3CCN(C)CC3)nc21
AC50 [6]: 31.6 µM (inconclusive)

CC(C)=CCC/C(C)=C/CO/N=C1/C[C@@H](O)[C@@H](O)[C@@H]2[C@H]3C(=O)N(c4ccc(F)cc4F)C(=O)[C@@H]3CC[C@@H]12
AC50 [6]: 3.98 µM (inconclusive)

COc1ccccc1-c1nc(N(C)C)c2ccccc2n1
AC50 [6]: 15.8 µM (inconclusive)

COc1ccccc1NC(=O)CCSc1nnnn1C
EC50 [7]: > 53 µM (inactive)

Cc1ccc(SCc2ccc(C(=O)Nc3ccccc3Br)cc2)cc1
EC50 [7]: > 53 µM (inactive)

c1ccc(CNc2nc(-c3ccoc3)nc3ccccc23)cc1
AC50 ([4]; read-out: AC50): 20 µM (inconclusive)

CCOc1ccc(S(=O)(=O)Nc2nc3ccccc3nc2Nc2ccc(N3CCOCC3)cc2)cc1
EC50 [7]: > 53 µM (inactive)

CN(C)Cc1ccccc1-c1nc(N(C)Cc2ccco2)c2ccccc2n1
AC50 [6]: 1.58 µM (inconclusive)

N#Cc1ccc(CN2CCCC3(CCN(C(=O)c4cccc(F)c4)CC3)C2)cc1
AC50 [6]: 10 µM (inconclusive)
AC50 [5]: 39.8 µM (inconclusive)

CC(C)(Oc1ccc(Cl)cc1)C(=O)Nc1cccnc1
AC50 [6]: 17.8 µM (inconclusive)

CCOc1ccc(CNC(=O)C2CCC(=O)N2C2CCCC2)cc1OC (stereo not drawn)
AC50 [6]: 25.1 µM (inconclusive)
AC50 ([4]; read-out: AC50): 22.4 µM (inconclusive)
AC50 [5]: 28.2 µM (inconclusive)

COc1ccc(C2(C)NC(=O)N(CC(=O)c3cc(C)n(C4CC4)c3C)C2=O)cc1 (stereo not drawn)
EC50 [7]: 5.74 µM (active)

CCCOC(=O)c1ccc(NC(=O)c2cn(CC)c3nc(C)ccc3c2=O)cc1
AC50 ([4]; read-out: AC50): 20 µM (inconclusive)
AC50 [5]: 15.8 µM (inconclusive)

COc1cc([N+](=O)[O-])ccc1-c1ccc(/C=N/NC(=O)OC(C)(C)C)o1
EC50 [7]: 6.43 µM (active)

CC1(C)C(=O)OC(c2cccn2-c2ccc([N+](=O)[O-])cc2)C2(CCCCC2)C1=O (stereo not drawn)
EC50 [7]: 4.72 µM (active)

Nc1cccc2cc(S(=O)(=O)Nc3ccc(C(=O)O)cc3)ccc12
AC50 ([4]; read-out: AC50): 3.16 µM (inconclusive)
AC50 [5]: 7.94 µM (inconclusive)

Cc1cc(C)n(CC(=O)N/N=C/c2ccco2)n1
AC50 [4]: inconclusive

COc1ccc(/C=N/NC(=O)C2CCN(c3ncc(C(F)(F)F)cc3Cl)CC2)cc1
AC50 [6]: 11.2 µM (inconclusive)

Cc1c(CC(C)(C)C(=O)O)n(Cc2ccc(Cl)cc2)c2ccc(F)cc12
AC50 [6]: 25.1 µM (inconclusive)
AC50 [4]: inconclusive

COc1cccc(-c2ccc3ncnc(NCc4cccnc4)c3c2)c1
AC50 [5]: 1.58 µM (inconclusive)

COc1ccc(-c2oc3cc(OC)c(O)c(OC)c3c(=O)c2OC)cc1O
EC50 [1]: 13.6 µM (active)
EC50 [2]: 12.6 µM (active)
EC50 [3]: 11.3 µM (active)

Nc1ccc(S(=O)(=O)c2ccc(NCN3C(=O)NC(=O)C(=O)C3=O)cc2)cc1 [ALLANTODAPSONE]
AC50 [4]: inconclusive

CCN(CC)CC#CCOC(=O)[C@@](O)(c1ccccc1)C1CCCCC1 [ESOXYBUTYNIN]
AC50 [5]: 15.8 µM (inconclusive)
